From US10071095B2, “1,2,4-triazolo [4,3-A] pyridine derivatives and their use for the treatment of neurological and psychiatric disorders” (JANSSEN PHARMACEUTICALS, INC., priority 2009, dated 2018)

The compounds below were run against T1, human mGluR2 receptor (Homo sapiens, UniProt Q14416) (assay: [35S]GTPγS binding assay, positive allosteric modulation (GTPγS-PAM) in presence of EC20 glutamate). Conditions: in presence of glutamate at EC20; average pEC50 if more experiments; ‡ means tested once.
T1 construct: expressed in transfected cells; host or cells: CHO cells
T1 sequence (Q14416 19-872): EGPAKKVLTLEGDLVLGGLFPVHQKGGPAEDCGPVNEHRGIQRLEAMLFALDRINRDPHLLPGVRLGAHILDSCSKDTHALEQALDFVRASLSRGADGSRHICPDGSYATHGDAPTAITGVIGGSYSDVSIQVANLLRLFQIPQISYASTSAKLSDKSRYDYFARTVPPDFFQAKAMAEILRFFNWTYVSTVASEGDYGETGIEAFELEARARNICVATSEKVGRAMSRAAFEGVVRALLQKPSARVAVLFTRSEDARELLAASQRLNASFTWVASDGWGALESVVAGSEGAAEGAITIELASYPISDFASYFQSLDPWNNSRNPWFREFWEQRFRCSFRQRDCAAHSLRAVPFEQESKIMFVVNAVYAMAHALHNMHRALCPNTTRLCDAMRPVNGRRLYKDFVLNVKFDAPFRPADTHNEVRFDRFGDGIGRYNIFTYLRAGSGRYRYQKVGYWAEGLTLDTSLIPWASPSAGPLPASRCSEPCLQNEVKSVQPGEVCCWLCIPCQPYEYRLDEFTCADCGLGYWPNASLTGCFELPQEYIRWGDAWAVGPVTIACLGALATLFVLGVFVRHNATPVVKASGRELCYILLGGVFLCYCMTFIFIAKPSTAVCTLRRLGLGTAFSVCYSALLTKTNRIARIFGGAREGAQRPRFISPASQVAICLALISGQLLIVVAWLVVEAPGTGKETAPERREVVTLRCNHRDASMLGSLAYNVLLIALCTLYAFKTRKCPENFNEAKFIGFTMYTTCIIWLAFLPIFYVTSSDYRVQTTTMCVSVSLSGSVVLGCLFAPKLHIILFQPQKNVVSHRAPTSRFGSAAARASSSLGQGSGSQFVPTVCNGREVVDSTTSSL
Format: biochemical
Protocol: [^35S]GTPγS Binding Assay
The [^35S]GTPγS binding assay is a functional membrane-based assay used to study G-protein coupled receptor (GPCR) function whereby incorporation of a non-hydrolysable form of GTP, [^35S]GTPγS (guanosine 5′-triphosphate, labelled with […] ^35S), is measured. The G-protein α subunit catalyzes the exchange of guanosine 5′-diphosphate (GDP) by guanosine triphosphate (GTP) and on activation of the GPCR by an agonist, [^35S]GTPγS, becomes incorporated and cannot be cleaved to continue the exchange cycle (Harper (1998) Current Protocols in Pharmacology 2.6.1-10, John Wiley & Sons, Inc.). […] Here we describe the use of the [^35S]GTPγS binding assay using membranes from cells transfected with the human mGluR2 receptor and adapted from Schaffhauser et al. ((2003) Molecular Pharmacology 4:798-810) for the detection of the positive allosteric modulation (PAM) properties of the compounds of this invention.
CHO-cells were cultured to pre-confluence and stimulated with 5 mM butyrate for 24 h, prior to washing in PBS, and then collected by scraping in homogenisation buffer (50 mM Tris-HCl buffer, pH 7.4, 4° C.). Cell lysates were homogenized briefly using an ultra-turrax homogenizer. The homogenate was centrifuged at 16,000 RPM (Sorvall RC-5C plus rotor SS-34) for 10 minutes and the supernatant discarded. The pellet was resuspended in 5 mM Tris-HCl, pH 7.4 and centrifuged again (18,000 RPM, 20 min, 4° C.). The final pellet was resuspended in 50 mM Tris-HCl, pH 7.4 and stored at −80° C. in appropriate aliquots before use. Protein concentration was determined by the Bradford method (Bio-Rad, USA) with bovine serum albumin as standard.
Measurement of mGluR2 positive allosteric modulatory activity of test compounds was performed as follows. Test compounds and glutamate were diluted in assay buffer containing 10 mM HEPES acid, 10 mM HEPES salt, pH 7.4, 100 mM NaCl, 3 mM MgCl2 and 10 μM GDP. Human mGlu2 receptor-containing membranes were thawed on ice and diluted in assay buffer supplemented with 14 μg/ml saponin. Membranes were pre-incubated with compound alone or together with a predefined (˜EC20) concentration of glutamate (PAM assay) for 30 min at 30° C. After addition of [^35S]GTPγS (f.c. 0.1 nM) microplates were shaken briefly and further incubated to allow [^35S]GTPγS incorporation on activation (30 minutes, 30° C.). Final assay mixtures contained 7 μg of membrane protein in 10 mM HEPES acid, 10 mM HEPES salt, pH 7.4, 100 mM NaCl, 3 mM MgCl2, 10 µM GDP and 10 μg/ml saponin. Total reaction volume was 200 μl. Reactions were terminated by rapid filtration through Unifilter-96 GF/B filter plates (Packard, Meriden, Conn.) using a 96-well Packard filtermate harvester. Filters were washed 6 times with ice-cold 10 mM NaH2PO4/10 mM Na2HPO4, pH 7.4. Filters were then air-dried, and 40 μl of liquid scintillation cocktail (Microscint-O) was added to each well. Membrane-bound radioactivity was counted in a Microplate Scintillation and Luminescence Counter from Packard.
The concentration-response curves of representative compounds of the present invention-obtained in the presence of EC20 of mGluR2 agonist glutamate to determine positive allosteric modulation (PAM)—were generated using the Lexis software interface (developed at J&J).
`FC(F)(F)c1c(N2CCN(c3ncccn3)CC2)ccn2c(CC3CC3)nnc12` [compound 64] was tested, and the “GTPγS - hR2 PAM pEC50” value was 6.65.
With `COc1cccc(F)c1C1CCN(c2ccn3c(CC(F)(F)F)nnc3c2Cl)CC1` [compound 65] the “GTPγS - hR2 PAM pEC50” value was 8.41.
`CCCc1nnc2c(C(F)(F)F)c(N3CCC(c4ccccc4)CC3)ccn12` [compound 67] was tested, and the “GTPγS - hR2 PAM pEC50” value was 7.36.
For `Cc1cccnc1OC1CCN(c2ccn3c(CC4CC4)nnc3c2C(F)(F)F)CC1` [compound 68], the “GTPγS - hR2 PAM pEC50” value was 7.55.
`FC(F)(F)CCc1nnc2c(Cl)c(N3CCC(c4ccccc4)CC3)ccn12` [compound 71] was tested, and the “GTPγS - hR2 PAM pEC50” value was 6.65‡.
For `CC1(C)CN(c2ccn3c(CC4CC4)nnc3c2C(F)(F)F)CCN1c1ccccc1` [compound 72], the “GTPγS - hR2 PAM pEC50” value was 7.06.
In the case of `N#Cc1c(N2CCN(C3CCC(C(F)(F)F)CC3)CC2)ccn2c(CC(F)(F)F)nnc12` (stereo not shown) [compound 73], the “GTPγS - hR2 PAM pEC50” value is reported as 6.13.
For `CC(C)Cc1nnc2c(C#N)c(N3CCC(c4ccccc4)CC3)ccn12` [compound 74], the “GTPγS - hR2 PAM pEC50” value was 6.85.
For `FC(F)(F)c1c(N2CCC3(CC2)OCc2ccccc23)ccn2c(CC3CC3)nnc12` [compound 77], the “GTPγS - hR2 PAM pEC50” value was 7.68‡.
`FC(F)(F)c1c(N2CCC3(CC2)COc2ccccc2O3)ccn2c(CC3CC3)nnc12` [compound 79] was tested, and the “GTPγS - hR2 PAM pEC50” value was 7.28.
In the case of `FC(F)(F)c1c(N2CCC(F)(c3ccccc3)CC2)ccn2c(COCC3CC3)nnc12` [compound 80], the “GTPγS - hR2 PAM pEC50” value is reported as 7.27.
With `CCOCc1nnc2c(Cl)c(N3CCC(c4ccccc4OC)CC3)ccn12` [compound 82] the “GTPγS - hR2 PAM pEC50” value was 7.51.
For `CCOCc1nnc2c(Cl)c(N3CCC(c4cc(F)ccc4OC)CC3)ccn12` [compound 83], the “GTPγS - hR2 PAM pEC50” value was 7.64.
`CCOCc1nnc2c(Cl)c(N3CCC(c4c(OC)ccc(F)c4F)CC3)ccn12` [compound 84] was tested, and the “GTPγS - hR2 PAM pEC50” value was 7.86.
For `CCOCc1nnc2c(Cl)c(N3CCC(c4c(F)cc(F)cc4OC)CC3)ccn12` [compound 85], the “GTPγS - hR2 PAM pEC50” value was 8.06.
`CCOCc1nnc2c(Cl)c(N3CCC(c4c(F)ccc(F)c4OC)CC3)ccn12` [compound 86] was tested, and the “GTPγS - hR2 PAM pEC50” value was 7.95.
For `CCCc1nnc2c(C(F)(F)F)c(N3CCC4(CC3)COc3ccccc34)ccn12` [compound 87], the “GTPγS - hR2 PAM pEC50” value was 6.94.
For `CCCc1nnc2c(Cl)c(N3CCC4(CC3)COc3ccccc34)ccn12` [compound 88], the “GTPγS - hR2 PAM pEC50” value was 6.18.
With `CCc1nnc2c(C(F)(F)F)c(N3CCC4(CC3)COc3ccccc34)ccn12` [compound 89] the “GTPγS - hR2 PAM pEC50” value was 6.46‡.
With `COc1cnc(N2CCN(c3ccn4c(CC5CC5)nnc4c3C(F)(F)F)CC2)nc1` [compound 90] the “GTPγS - hR2 PAM pEC50” value was 6.61.
In the case of `COc1cccnc1C1CCN(c2ccn3c(CC4CC4)nnc3c2C(F)(F)F)CC1` [compound 91], the “GTPγS - hR2 PAM pEC50” value is reported as 7.27.
For `COc1cccnc1N1CCN(c2ccn3c(CC4CC4)nnc3c2C(F)(F)F)CC1` [compound 92], the “GTPγS - hR2 PAM pEC50” value was 6.87.
With `CCCc1nnc2c(Cl)c(N3CCC4(CC3)OCc3ccccc34)ccn12` [compound 93] the “GTPγS - hR2 PAM pEC50” value was 6.53.
In the case of `CCCc1nnc2c(Cl)c(N3CCN(c4ccc(F)cc4F)CC3)ccn12` [compound 95], the “GTPγS - hR2 PAM pEC50” value is reported as 5.93‡.
In the case of `Clc1c(N2CCN(c3ccccc3)CC2)ccn2c(CC3CC3)nnc12` [compound 99], the “GTPγS - hR2 PAM pEC50” value is reported as 6.03.
With `FC(F)(F)Cc1nnc2c(Cl)c(N3CCN(c4ccccc4)CC3)ccn12` [compound 101] the “GTPγS - hR2 PAM pEC50” value was 6.24.
With `CCc1nnc2c(Cl)c(N3CCC4(CC3)OCc3ccccc34)ccn12` [compound 102] the “GTPγS - hR2 PAM pEC50” value was 6.5.
In the case of `CCOCc1nnc2c(Cl)c(N3CCN(c4ccccc4)C(C)(C)C3)ccn12` [compound 103], the “GTPγS - hR2 PAM pEC50” value is reported as 5.63‡.
With `CC1(C)OC2(CCN(c3ccn4c(CC5CC5)nnc4c3Cl)CC2)c2ccccc21` [compound 104] the “GTPγS - hR2 PAM pEC50” value was 7.7.
In the case of `CC1(C)CN(c2ccn3c(CC4CC4)nnc3c2Cl)CCN1c1ccccc1` [compound 105], the “GTPγS - hR2 PAM pEC50” value is reported as 6.17‡.
For `CCCc1nnc2c(Cl)c(N3CCC4(CC3)OCc3c(F)cccc34)ccn12` [compound 106], the “GTPγS - hR2 PAM pEC50” value was 6.45.
With `CCCc1nnc2c(Cl)c(N3CCC4(CC3)OC(C)(C)c3ccccc34)ccn12` [compound 107] the “GTPγS - hR2 PAM pEC50” value was 7.22.
With `Cl.Fc1cccc2c1COC21CCN(c2ccn3c(CC4CC4)nnc3c2Cl)CC1` [compound 108] the “GTPγS - hR2 PAM pEC50” value was 6.91‡.
In the case of `Fc1cccc2c1COC21CCN(c2ccn3c(CC4CC4)nnc3c2C(F)(F)F)CC1` [compound 109], the “GTPγS - hR2 PAM pEC50” value is reported as 7.29.
In the case of `CCCc1nnc2c(C(F)(F)F)c(N3CCC4(CC3)OCc3c(F)cccc34)ccn12` [compound 110], the “GTPγS - hR2 PAM pEC50” value is reported as 6.86.
With `COc1cnc(C2CCN(c3ccn4c(CC5CC5)nnc4c3C(F)(F)F)CC2)nc1` [compound 111] the “GTPγS - hR2 PAM pEC50” value was 6.26.
`CCCc1nnc2c(C(F)(F)F)c(N3CCC4(CC3)OC(C)(C)c3ccccc34)ccn12` [compound 113] was tested, and the “GTPγS - hR2 PAM pEC50” value was 7.59.
For `FC(F)(F)Cc1nnc2c(Cl)c(N3CCC(Oc4ccccn4)CC3)ccn12` [compound 114], the “GTPγS - hR2 PAM pEC50” value was 6.33.
In the case of `Fc1cccc(C2(C(F)(F)F)CCN(c3ccn4c(CC5CC5)nnc4c3Cl)CC2)c1` [compound 117], the “GTPγS - hR2 PAM pEC50” value is reported as 6.68.
In the case of `FC(F)(F)c1c(N2CCc3ccccc3C2)ccn2c(CC3CC3)nnc12` [compound 118], the “GTPγS - hR2 PAM pEC50” value is reported as 6.83.
`N#Cc1c(N2CCC(c3ccccc3)(C(F)(F)F)CC2)ccn2c(CC3CC3)nnc12` [compound 120] was tested, and the “GTPγS - hR2 PAM pEC50” value was 6.31.
With `CC(C)OCc1nnc2c(C(F)(F)F)c(N3CCC(c4ccccc4)CC3)ccn12` [compound 122] the “GTPγS - hR2 PAM pEC50” value was 7.3.
In the case of `FC(F)(F)c1c(N2CCC(Oc3ccccn3)CC2)ccn2c(CC3CC3)nnc12` [compound 124], the “GTPγS - hR2 PAM pEC50” value is reported as 6.98.
In the case of `CC(C)OCc1nnc2c(Cl)c(N3CCC(F)(c4ccccc4)CC3)ccn12` [compound 127], the “GTPγS - hR2 PAM pEC50” value is reported as 6.42.
For `FC(F)(F)c1c(N2CCC(Oc3ccccn3)CC2)ccn2c(CCC3CC3)nnc12` [compound 129], the “GTPγS - hR2 PAM pEC50” value was 6.92.
For `FC(F)(F)c1c(N2Cc3ccccc3C2)ccn2c(CC3CC3)nnc12` [compound 130], the “GTPγS - hR2 PAM pEC50” value was 6.4.
With `CCOCc1nnc2c(C(F)(F)F)c(N3CCC(Oc4ccccn4)CC3)ccn12` [compound 132] the “GTPγS - hR2 PAM pEC50” value was 6.68.
For `CC1(c2ccccc2)CCN(c2ccn3c(CC4CC4)nnc3c2Cl)CC1` [compound 133], the “GTPγS - hR2 PAM pEC50” value was 7.05.
For `CCOCc1nnc2c(C(F)(F)F)c(N3CCC(Oc4ncccc4C)CC3)ccn12` [compound 134], the “GTPγS - hR2 PAM pEC50” value was 7.17.
In the case of `CC(C)OCc1nnc2c(Cl)c(N3CCC(c4ccccc4)CC3)ccn12` [compound 135], the “GTPγS - hR2 PAM pEC50” value is reported as 6.77.
`CCOCc1nnc2c(C(F)(F)F)c(N3CCC(c4ccccc4)CC3)ccn12` [compound 136] was tested, and the “GTPγS - hR2 PAM pEC50” value was 7.69‡.
For `FC(F)(F)c1c(N2CC(c3ccccc3)C2)ccn2c(CC3CC3)nnc12` [compound 137], the “GTPγS - hR2 PAM pEC50” value was 6.87.
In the case of `FC1(c2ccccc2)CCN(c2ccn3c(CCC4CC4)nnc3c2Cl)CC1` [compound 140], the “GTPγS - hR2 PAM pEC50” value is reported as 6.55.
With `CCOCc1nnc2c(C(F)(F)F)c(N3CCC(F)(c4ccccc4)CC3)ccn12` [compound 141] the “GTPγS - hR2 PAM pEC50” value was 6.95.
For `CCCc1nnc2c(C(F)(F)F)c(N3CCC4(CC3)OC(F)(F)c3ccccc34)ccn12` [compound 142], the “GTPγS - hR2 PAM pEC50” value was 6.55‡.
`CC(C)OCc1nnc2c(Cl)c(N3CCC(c4ccccc4)(C(F)(F)F)CC3)ccn12` [compound 144] was tested, and the “GTPγS - hR2 PAM pEC50” value was 6.25.

Same assay, conditions: in presence of glutamate at EC20; average pEC50 if more experiments; ‡ means tested once; read-out: GTPγS - hR2 PAM pEC50 (converted)
Work on `FC(F)(F)c1c(N2CCC3(CC2)COc2ncccc23)ccn2c(CC3CC3)nnc12` [compound 119, 1′-[3-cyclopropylmethyl-8-(trifluoromethyl)[1,2,4]triazolo[4,3-a]pyridin-7-yl]-spiro[furo[2,3-b]pyridine-3(2H),4′-piperidine]] yielded an EC50 of 1740 nM.
In the case of `CC1(C)OC2(CCN(c3ccn4c(CC(F)(F)F)nnc4c3Cl)CC2)c2ccccc21` [compound 139], the EC50 is reported as 4.37 nM.
